IC50 data for 24 molecules are collected here from patent US20260184687A1, “DIHYDROINDENE DERIVATIVES AS MALT1 INHIBITORS” (C4X Discovery Limited, priority 2022, published 2026).

The term IC50 denotes the point on the concentration scale where inhibition reaches its midpoint.

Each structure is given as a SMILES string. Structures can show the parent of a compound that is named as a salt. Where two headings read alike, the source gives them in different places.

Test [1] deals with IL-2 release from stimulated Jurkat cells. Description: Human IL-2 Release Phenotypic Assay (Assay 3). The class given is cell-based. As to conditions: Jurkat cells (clone E6-1), 200 ng/mL PMA + 300 ng/mL ionomycin, IL-2 by ELISA. In outline:
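Jurkat E6-1 cells in RPMI1640/10% FBS were seeded at 50 000 cells/well and incubated overnight at 37° C. Half-log compound dilutions (0.5% final DMSO) were added for 30 min, then cells were stimulated with 200 ng/mL PMA + 300 ng/mL ionomycin for 48 h. IC50 came from a 4-parameter non-linear regression fit.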
In general terms: An ELISA detects its analyte on a solid surface through an enzyme-linked reagent.

In test [2] the target is T1, FL hMALT1 enzyme (Homo sapiens, UniProt Q9UDY8).
T1 sequence (Q9UDY8 1-824): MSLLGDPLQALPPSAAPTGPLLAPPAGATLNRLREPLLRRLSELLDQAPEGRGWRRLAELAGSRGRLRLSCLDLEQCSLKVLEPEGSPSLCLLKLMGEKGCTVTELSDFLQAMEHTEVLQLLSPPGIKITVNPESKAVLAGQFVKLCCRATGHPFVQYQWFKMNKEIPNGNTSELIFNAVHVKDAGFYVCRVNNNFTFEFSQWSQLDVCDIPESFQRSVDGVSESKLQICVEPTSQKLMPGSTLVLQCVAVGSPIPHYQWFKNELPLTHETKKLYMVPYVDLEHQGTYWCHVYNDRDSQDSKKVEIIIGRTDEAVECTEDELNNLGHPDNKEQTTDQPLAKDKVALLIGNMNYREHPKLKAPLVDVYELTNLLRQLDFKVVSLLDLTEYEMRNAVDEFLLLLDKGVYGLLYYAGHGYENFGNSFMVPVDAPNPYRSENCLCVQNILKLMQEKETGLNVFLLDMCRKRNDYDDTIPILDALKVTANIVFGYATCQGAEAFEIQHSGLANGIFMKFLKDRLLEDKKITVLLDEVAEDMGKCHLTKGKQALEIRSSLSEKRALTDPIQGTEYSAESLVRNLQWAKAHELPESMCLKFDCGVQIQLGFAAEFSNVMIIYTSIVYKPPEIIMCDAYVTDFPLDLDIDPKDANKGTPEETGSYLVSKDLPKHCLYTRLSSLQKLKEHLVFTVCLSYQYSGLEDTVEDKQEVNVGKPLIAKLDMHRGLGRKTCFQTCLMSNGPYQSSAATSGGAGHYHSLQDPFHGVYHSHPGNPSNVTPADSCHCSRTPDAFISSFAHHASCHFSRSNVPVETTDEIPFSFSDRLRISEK
Procedure: (§1) MALT1 protease activity was assessed in vitro by measuring the cleavage of a fluorogenic tetrapeptide substrate.
(§2) For a higher sensitivity assay, commercially available FL hMALT1 enzyme (Abcam, 1-10 nM) was incubated with substrate (Ac-LVSR-AMC, 100 μM) in reaction buffer comprising 50 mM HEPES (pH7.0), 25 mM KCl, 0.1% (v/v) CHAPS, 1 mM TCEP and 0.7 M sodium citrate.
(§3) Test compounds dissolved in DMSO were dispensed into assay plates (384-well, black, shallow ProxiPlates). 7 μl enzyme solution was added and incubated at room temperature for 30 minutes to allow compound binding to occur. 2 μl substrate solution was then added and the fluorescence (excitation 360 nm, emission 460 nm) read every 15 minutes using a suitable plate reader. Final assay DMSO concentration was 1%. […] IC50 values were calculated using GraphPad Prism using a 4-parameter non-linear regression curve fit.

Test [3] concerns the target T1, FL hMALT1 enzyme. The experiment in a line: biochemical.
Procedure: as §1, §2, §3
For test [4], the target named is T2, MALT1-GS-Ub (6-His-hMALT-1 residues 339-715 fused to ubiquitin) (Homo sapiens, UniProt Q9UDY8).
Procedure: as §1
(§4) A protein (MALT1-GS-Ub) comprising 6-His-hMALT-1 (residues 339-715), fused to ubiquitin with an 8×GGS linker, was expressed in E. coli, and purified using chitin resin to remove contaminants followed by affinity chromatography purification and size-exclusion chromatography, according to standard protocols.
(§5) Briefly, MALT1-GS-Ub (300-600 nM) was incubated with substrate (Ac-LVSR-AMC, 100 μM) in reaction buffer comprising 50 mM HEPES (pH7.0), 25 mM KCl, 0.1% (v/v) CHAPS and 1 mM TCEP.
as §3
For test [5], the target named is T2, MALT1-GS-Ub (6-His-hMALT-1 residues 339-715 fused to ubiquitin). Description: biochemical.
Procedure: as §1, §4, §5, §3

T2 sequence (Q9UDY8 with tags, fused parts or gaps limits assumed): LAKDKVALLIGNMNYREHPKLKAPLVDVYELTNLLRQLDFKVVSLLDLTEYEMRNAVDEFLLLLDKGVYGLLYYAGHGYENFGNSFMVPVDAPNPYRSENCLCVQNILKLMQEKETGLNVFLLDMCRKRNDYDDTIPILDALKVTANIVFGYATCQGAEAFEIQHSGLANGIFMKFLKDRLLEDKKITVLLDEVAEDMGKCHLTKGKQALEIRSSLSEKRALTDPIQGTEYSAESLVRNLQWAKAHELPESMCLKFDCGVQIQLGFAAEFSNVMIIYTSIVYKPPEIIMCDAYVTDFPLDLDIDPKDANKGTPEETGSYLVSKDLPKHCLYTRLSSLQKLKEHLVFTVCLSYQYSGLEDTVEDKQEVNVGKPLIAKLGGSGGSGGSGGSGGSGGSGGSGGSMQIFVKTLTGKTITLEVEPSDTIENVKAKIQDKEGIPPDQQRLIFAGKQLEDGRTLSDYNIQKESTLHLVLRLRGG

Consider `CC(=O)NC12CC(C(=O)N(C)[C@@H](c3ccc(N[C@H]4Cc5ccccc5C4(C)C)cn3)C(F)(F)F)(C1)C2` [Example 179, 3-Acetamido-N—((S)-1-(5-(((S)-1,1-dimethyl-2,3-dihydro-1H-inden-2-yl)amino)pyridin-2-yl)-2,2,2-trifluoroethyl)-N-methylbicyclo[1.1.1]pentane-1-carboxamide], for which the IC50 in test [1] (Homo sapiens, Jurkat, 48 h) was 0.47 µM; in test [2], 0.088 µM.

For `CN(C(=O)c1cnco1)[C@@H](c1ccc(NC2Cc3ccccc3C2(C)C)cc1)C(F)(F)F` (single isomer, unassigned) [Example 4], the half-maximal inhibitory concentration (IC50) in test [1] (48 hours) was 0.069 µM; in test [3], 0.034 µM; in test [4] it was 0.14 µM.

With `CN(C(=O)C1CCS(=O)(=O)CC1)[C@@H](c1ccc(NC2Cc3ccccc3C2(C)C)nc1)C(F)(F)F` (single isomer, unassigned) [Example 37], the IC50 in test [1] (48 hours) amounted to 0.5 µM; in test [2], 0.039 µM; in test [5], 0.27 µM.

Consider `CN(C(=O)C1CCS(=O)(=O)CC1)[C@@H](c1ccc(NC2Cc3ccc(Cl)cc3C2)cc1)C(F)(F)F` (single isomer, unassigned) [Example 55], for which the figures for the IC50 in test [1] (48 hours), in test [3] and in test [5] were 4.57 µM, 0.22 µM and 0.52 µM, respectively.

For the molecule `CN(C(=O)c1cocn1)[C@@H](c1ccc(NC2Cc3ccccc3C2(C)C)cc1)C(F)(F)F` (single isomer, unassigned) [Example 26], the IC50 is 0.91 µM in test [1] (48 hours), 0.7 µM in test [3] and 0.36 µM in test [5].

For `CN(C(=O)C1CNC1)[C@@H](c1ccc(NC2Cc3ccccc3C2(C)C)cc1)C(F)(F)F` (stereo partly drawn) [Example 72, N-((1S)-1-(4-((1,1-Dimethyl-2,3-dihydro-1H-inden-2-yl)amino)phenyl)-2,2,2-trifluoroethyl)-N-methylazetidine-3-carboxamide Hydrochloride], the IC50 in test [1] (Homo sapiens, Jurkat, 48 h) was 0.52 µM; in test [3] it was 0.22 µM; in test [5] it was 0.27 µM.

Consider `CN1CC(C(=O)N(C)C(c2ccc(NC3Cc4ccccc4C3(C)C)nc2)C(F)(F)F)C1` (single isomer, unassigned) [Example 93, N-(1-(6-((1,1-Dimethyl-2,3-dihydro-1H-inden-2-yl)amino)pyridin-3-yl)-2,2,2-trifluoroethyl)-N,1-dimethylazetidine-3-carboxamide], for which the results for the IC50 in test [1] (48 hours), in test [3] and in test [5] were 3.04 µM, 0.69 µM and 1 µM, respectively.

As to `CN(C(=O)C1CCS(=O)(=O)CC1)[C@@H](c1ccc(NC2Cc3ccccc3C2(C)C)cc1)C(F)(F)F` (single isomer, unassigned) [Example 1], the IC50 in test [1] (Homo sapiens, Jurkat, 48 h) is 0.43 µM; in test [3], 0.007 µM; in test [5] it was 0.14 µM.

In the case of `CN(C(=O)CN1CCCC1=O)[C@@H](c1ccc(NC2Cc3ccccc3C2(C)C)cc1)C(F)(F)F` (single isomer, unassigned) [Example 46], the IC50 in test [1] (48 hours) stood at 0.44 µM; in test [3], 0.066 µM; in test [5], 0.25 µM.

Regarding `CNC(=O)N1CC(C(=O)N(C)[C@@H](c2ccc(NC3Cc4ccccc4C3(C)C)cc2)C(F)(F)F)C1` (single isomer, unassigned) [Example 74], the results for the IC50 in test [1] (48 hours), in test [3] and in test [5] were 0.18 µM, 0.018 µM and 0.32 µM, respectively.

Regarding `CN1CC(C(=O)N(C)C(c2ccc(NC3Cc4ccccc4C3(C)C)cn2)C(F)(F)F)C1` (single isomer, unassigned) [Example 92, N-(1-(5-((1,1-Dimethyl-2,3-dihydro-1H-inden-2-yl)amino)pyridin-2-yl)-2,2,2-trifluoroethyl)-N,1-dimethylazetidine-3-carboxamide], the IC50 was 0.87 µM in test [1] (Homo sapiens, Jurkat, 48 h); 0.28 µM in test [3]; 0.5 µM in test [5].

As to `CC1c2ccccc2C(C)C1Nc1ccc([C@H](N(C)C(=O)C2CCS(=O)(=O)CC2)C(F)(F)F)cc1` (stereo partly drawn) [Example 38, N-((1S)-1-(4-((1,3-Dimethyl-2,3-dihydro-1H-inden-2-yl)amino)phenyl)-2,2,2-trifluoroethyl)-N-methyltetrahydro-2H-thiopyran-4-carboxamide 1,1-dioxide], the IC50 in test [1] (Homo sapiens, Jurkat, 48 h) was 0.56 µM; in test [3], 0.016 µM; in test [5], 0.21 µM.

`CNS(=O)(=O)CCCC(=O)N(C)[C@@H](c1ccc(NC2Cc3ccccc3C2(C)C)cc1)C(F)(F)F` (single isomer, unassigned) [Example 65]: the IC50 was found to be 2.24 µM in test [1] (48 hours), 0.045 µM in test [3] and 0.19 µM in test [5].

Turning to `CN(C(=O)C1CNC1)C(c1ccc(NC2Cc3ccccc3C2(C)C)cn1)C(F)(F)F` (single isomer, unassigned) [Example 84, N-(1-(5-((1,1-Dimethyl-2,3-dihydro-1H-inden-2-yl)amino)pyridin-2-yl)-2,2,2-trifluoroethyl)-N-methylazetidine-3-carboxamide], the IC50 in test [1] (48 hours) came to 0.64 µM; in test [3] it was 0.18 µM; in test [5] it was 0.32 µM.

Consider `CC(=O)N1CC(C(=O)N(C)[C@@H](c2ccc(NC3Cc4ccccc4C3(C)C)cc2)C(F)(F)F)C1` (single isomer, unassigned) [Example 6], for which the results for the IC50 in test [1] (48 hours), in test [3] and in test [5] were 0.32 µM, 0.016 µM and 0.15 µM, respectively.

As for `CN([C@@H](c1ccc(NC2Cc3ccccc3C2(C)C)cc1)C(F)(F)F)S(=O)(=O)C1CC1` (single isomer, unassigned) [Example 80], the 50% inhibitory concentration (IC50) in test [1] (48 hours) came out at 2.24 µM; in test [3], 0.21 µM; in test [5] it was 0.27 µM.

As for `CN(C(=O)c1cc[nH]c(=O)c1)C(c1ccc(NC2Cc3ccccc3C2(C)C)cn1)C(F)(F)F` (single isomer, unassigned) [Example 96, N-(1-(5-((1,1-Dimethyl-2,3-dihydro-1H-inden-2-yl)amino)pyridin-2-yl)-2,2,2-trifluoroethyl)-N-methyl-2-oxo-1,2-dihydropyridine-4-carboxamide], the concentration for half-maximal inhibition (IC50) in test [1] (Homo sapiens, Jurkat, 48 h) is 1.56 µM; in test [3] it was 0.13 µM; in test [5], 0.14 µM.

Consider `CC(=O)NCCC(=O)N(C)[C@@H](c1ccc(NC2Cc3ccccc3C2(C)C)cc1)C(F)(F)F` (single isomer, unassigned) [Example 25], for which the IC50 in test [1] (48 hours) is 0.061 µM; in test [3], 0.027 µM; in test [4], 0.16 µM.

For `CC(=O)NCC(=O)N(C)[C@@H](c1ccc(NC2Cc3ccccc3C2(C)C)cc1)C(F)(F)F` (single isomer, unassigned) [Example 40], the IC50 was determined as 1.35 µM in test [1] (48 hours), 0.077 µM in test [3] and 0.23 µM in test [5].

`CN(C(=O)C1CCS(=O)(=O)CC1)[C@@H](c1ccc(NC2Cc3ccccc3C2(C)C)cc1)C(F)(F)F` (single isomer, unassigned) [Example 2]: the IC50 came out at 0.62 µM in test [1] (48 hours), 0.05 µM in test [3] and 0.14 µM in test [4].

On to `CN(C(=O)C1CCS(=O)(=O)CC1)[C@@H](c1ccc(NC2Cc3ccccc3C2(C)C)cn1)C(F)(F)F` (single isomer, unassigned) [Example 77], for which the IC50 in test [1] (48 hours) worked out at 0.92 µM; in test [3], 0.068 µM; in test [5], 0.31 µM.

In the case of `CN(C(=O)C1CCS(=O)(=O)CC1)[C@@H](c1ccc(NC2Cc3ccc(Cl)cc3C2(C)C)cc1)C(F)(F)F` (single isomer, unassigned) [Example 151], the IC50 in test [1] (48 hours) is 0.097 µM; in test [3], 0.004 µM; in test [5], 0.12 µM.

In the case of `CN(C(=O)C1CNC1)C(c1ccc(NC2Cc3ccccc3C2(C)C)nc1)C(F)(F)F` (single isomer, unassigned) [Example 87, N-(1-(6-((1,1-Dimethyl-2,3-dihydro-1H-inden-2-yl)amino)pyridin-3-yl)-2,2,2-trifluoroethyl)-N-methylazetidine-3-carboxamide], the IC50 in test [1] (Homo sapiens, Jurkat, 48 h) worked out at 1.13 µM; in test [3], 0.47 µM; in test [5], 1.22 µM.

As to `CC(=O)NCCC(=O)N(C)[C@@H](c1ccc(NC2Cc3ccccc3C2(C)C)cc1)C(F)(F)F` (single isomer, unassigned) [Example 24], the IC50 in test [1] (48 hours) was found to be 0.87 µM; in test [3], 0.089 µM; in test [5], 0.16 µM.
